Patent publication US12685741B2, “N-acetylneuraminic acid compositions and methods of use” (LifeScience AS, priority 2017, dated 2026)

Key:
[1] = system: herpes; assay: Oral NANA in a subject with chronic herpes outbreaks; type: in vivo, human; details: daily dose of 3 grams, outbreaks approximately every other week for 10 years before
Description: A daily dose of 3 grams NANA was administered to a subject suffering from chronic herpes outbreaks which had occurred approximately every other week for 10 years.

[2] = cited from earlier work
[3] = cited from earlier work; remark: listed apart in the source
[4] = rat, in vivo, cited from earlier work

SMILES: CC(=O)N[C@H]1[C@H]([C@H](O)[C@H](O)CO)OC(O)(C(=O)O)C[C@@H]1O (stereo partly drawn) [NANA, N-acetylneuraminic acid]
- herpes outbreaks [1]: has not had a herpes outbreak for two months
- solubility in water [2]: Easily soluble in water
- absorption after ingestion ([3]; in vivo): rapidly absorbed
- excretion ([3]; via urine): quickly excreted
- toxic effects ([4]; po): No toxic effects have been detected
- NOAEL [4]: 974 mg/kg body weight/day
